The text below walks through data of PubChem BioAssay (NCI).

Values joined by “and” are separate entries in the source; they are usually repeats but may differ in a detail not shown here. Equal entries are not always repeated.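 Compound exposure: 48 hours, 5 concentrations, 96-well plates. GI50: concentration for 50% inhibition of growth. TGI: concentration producing complete growth inhibition.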 Some results are limits rather than exact numbers.

Assay in all cases: NCI tumour cell line growth inhibition, 48 h
Assay [1] deals with SNB-19 CNS.
Assay [2] has as its system EKVX NSCLC.
Assay [3] has as its system HOP-92 NSCLC.
Assay [4] has as its system SF-268 CNS.
Assay [5] concerns CAKI-1 renal.
Assay [6] concerns RPMI-8226 leukemia.
Assay [7] relates to PC-3 prostate.
For assay [8], the system named is UACC-62 melanoma.
Assay [9] deals with MCF7 breast.
The subject of assay [10] is RXF 393 renal.
Assay [11] concerns SR leukemia.
The test system of assay [12] is MDA-MB-231 breast.
Assay [13] concerns SK-MEL-2 melanoma.
For assay [14], the system named is HCC-2998 colon.
The subject of assay [15] is CCRF-CEM leukemia.
For assay [16], the system named is UACC-257 melanoma.
In assay [17] the test system is SNB-75 CNS.
Assay [18] relates to OVCAR-4 ovarian.

With `CC(=O)OCC1OC(Sc2nc(-c3ccc(C)cc3)c(C#N)c(=O)n2C2OC(COC(C)=O)C(OC(C)=O)C(OC(C)=O)C2OC(C)=O)C(OC(C)=O)C(OC(C)=O)C1OC(C)=O` (stereo not given), the TGI in assay [1], in assay [2], in [3], in assay [4], in assay [5] and in assay [6] was greater than 100 µM throughout. Also, the TGI in assay [7], in [8], in [9], in [10], in assay [11] and in assay [12] was greater than 100 µM throughout. Besides, the TGI in assay [13] is greater than 100 µM; in assay [14] it was > 100 µM and 33.2 µM; in [15], greater than 100 µM; in assay [16], greater than 100 µM; in [17], greater than 100 µM. In addition, in [3], the GI50 is > 100 µM and 41.7 µM.

As for `CCOc1ccccc1N=NC1C(=O)N(C(=O)CC(=O)Nc2ccccc2Cl)N=C1C` (stereo not given), the TGI is 80.9 µM in assay [2]; 70 µM in assay [3]; greater than 100 µM in assay [4]; greater than 100 µM in assay [5]; greater than 100 µM in assay [6]; greater than 100 µM in assay [7]. Further, the TGI in assay [8], in [9], in assay [10], in assay [11], in [12] and in assay [13] was greater than 100 µM in each case. The TGI in assay [14], in assay [15], in assay [18] and in assay [17] was greater than 100 µM each time.

As to `CCOC(=O)c1c2ccccc2n2c(=O)n(C)nnc12`, the TGI in assay [1], in assay [2], in [3], in assay [4], in assay [5] and in assay [6] was greater than 100 µM in each case. In addition, the TGI is greater than 100 µM in assay [7]; greater than 100 µM in assay [8]; greater than 100 µM in [9]; 99.1 µM in [10]; greater than 90.7 µM in assay [11]; greater than 100 µM in assay [12]. The TGI in assay [13], in assay [14], in assay [15], in assay [18], in assay [16] and in [17] was greater than 100 µM in each case.

`CCCCC/C=C1\CCC(CN2CCOCC2)C1=O` (stereo not given): the TGI in assay [1] was found to be 32.4 µM; in assay [2] it was 29.7 µM; in assay [3], 29 µM; in assay [4], 34 µM; in [5], 9.79 µM; in assay [6] it was 3.02 µM. Further, the TGI in assay [7] was 30.9 µM; in assay [8], 28.5 µM; in assay [9], 7.73 µM; in assay [10], 12.3 µM; in assay [11], 12.1 µM; in [12], greater than 23.2 µM. Moreover, the TGI in [13] worked out at 29.6 µM; in [14], 27.7 µM; in assay [15] it was 29.9 µM; in [18] it was 48 µM; in [16], 24.5 µM; in assay [17], 33.5 µM.

As for `CCCC/C=C1\CCC(CN2CCOCC2)C1=O` (stereo not given), the TGI in assay [1] amounted to 29.6 µM; in [2], 28.3 µM; in assay [3], 3.72 µM; in assay [4], 36.3 µM; in assay [5] it was 3.74 µM; in assay [6], 2.59 µM. For the same molecule, the TGI in [7] turned out to be 26.2 µM; in [8], 16 µM; in assay [9] it was 4.93 µM; in assay [10], 2.89 µM; in [11], 5.23 µM; in [12], 14.5 µM. For the same molecule, the TGI in assay [13] came out at 23.8 µM; in [14], 22.1 µM; in assay [15], 3.35 µM; in [18], 36.1 µM; in [16] it was 13.5 µM; in assay [17], 20.7 µM.

Regarding `CCOC(=O)c1c(N2CCOCC2)[nH]c(=O)c(C(c2ccc(N(C)C)cc2)c2c(O)c(C(=O)OCC)c(N3CCOCC3)[nH]c2=O)c1O`, the TGI in assay [1], in [2], in assay [3], in [4], in assay [5] and in assay [6] was greater than 100 µM throughout. In addition, the TGI in assay [7], in assay [8], in [9], in assay [10], in assay [11] and in assay [12] was greater than 100 µM in each case. Moreover, the TGI in assay [13], in [14], in assay [15], in assay [18], in assay [16] and in assay [17] was greater than 100 µM each time.

On to `N#C/C(=C\N1CCNC1=S)C(=O)c1ccc2ccccc2c1`, for which the TGI in assay [1], in assay [2], in assay [3], in [4], in [5] and in assay [6] was greater than 100 µM throughout. For the same molecule, the TGI in [7], in assay [8], in assay [9], in [10], in assay [11] and in assay [12] was greater than 100 µM throughout. Moreover, the TGI in [13], in [14], in assay [18], in [16] and in assay [17] was greater than 100 µM in each case.

As to `O=C(CN1CCOCC1)NC1=Nc2ncccc2C(=O)NN1`, the TGI in [1], in [2], in assay [3], in [4], in assay [6] and in assay [7] was greater than 10 µM in each case. The TGI in assay [8], in assay [9], in assay [10], in assay [11], in assay [12] and in assay [13] was greater than 10 µM each time. The TGI in [15], in assay [16] and in assay [17] was greater than 10 µM in each case.

Consider `CN(C)c1ncc(-c2c[nH]c3ccccc23)nc1-c1c[nH]c2ccccc12`, for which the TGI was 14.8 µM in [1]; 10.8 µM in [2]; 8.33 µM in [3]; 25 µM in assay [4]; 11 µM in [5]; greater than 100 µM in assay [6]. The TGI in [7] is 13 µM; in [8] it was 3.89 µM; in assay [9] it was 12.9 µM; in [10], 4.11 µM; in assay [11] it was 10.8 µM; in assay [12], 4.62 µM. The TGI worked out at 12.8 µM in [13]; 4.1 µM in assay [14]; 17.8 µM in assay [18]; 3.89 µM in [16]; 5.59 µM in [17].

Turning to `Cc1ccc(-c2n[nH]c(=O)n2N)cc1`, the TGI in assay [1], in assay [2], in assay [3], in assay [4], in assay [5] and in [6] was greater than 100 µM in each case. Also, the TGI in assay [7], in [8], in assay [9], in [11], in assay [12] and in assay [13] was greater than 100 µM throughout. Also, the TGI in assay [14], in [15], in assay [18], in assay [16] and in assay [17] was greater than 100 µM each time.

For `CCCCCCCCCCCCCC/C(=C/OCC[N+](C)(C)C)OC(C)=O` (tested in a mixture with another compound), the TGI in assay [1] came to 3.35 µM; in [2], 10.7 µM; in [3] it was 3.75 µM; in [4], 5.09 µM; in assay [5], 4.04 µM; in [6], 4.16 µM. The TGI amounted to 5.27 µM in assay [7]; 5.25 µM in assay [8]; 10.3 µM in assay [9]; 2.45 µM in assay [10]; 4.57 µM in assay [11]; 4.83 µM in assay [12]. The TGI in [14] was 13.4 µM; in [15], 3.67 µM; in assay [18] it was 7.7 µM; in [16] it was 8.91 µM; in assay [17] it was 7.3 µM.

Take `COc1cc(CSc2ccc(O)cc2)cc(O)c1O`: the TGI in assay [1] was greater than 100 µM; in [2], greater than 100 µM; in assay [3], 50.4 µM; in assay [4], 95.9 µM; in assay [5], 91.2 µM; in assay [6], 56.3 µM. For the same molecule, the TGI is greater than 100 µM in [7]; 61.2 µM in [8]; 33.8 µM in assay [9]; greater than 100 µM in [10]; greater than 100 µM in assay [11]; 73.5 µM in assay [12]. Moreover, the TGI in assay [13] was 79.1 µM; in [14], greater than 100 µM; in assay [15] it was 87 µM; in assay [16] it was greater than 100 µM; in assay [17], greater than 100 µM.

On to `O=C(C1=CCC2(CC1)OCCO2)N(Cc1ccccc1)c1ccccc1I`, for which the TGI in [1] amounted to 37.3 µM; in [2], 31.5 µM; in [3], 43.2 µM; in assay [4], 27.9 µM; in assay [5] it was 88.3 µM; in [6], 97.6 µM. Besides, the TGI in assay [7] is 59.9 µM; in [8] it was 31.1 µM; in [9], 72.4 µM; in assay [10] it was 77.6 µM; in assay [11], greater than 100 µM; in assay [12], 68.1 µM. Besides, the TGI in assay [13] worked out at 38.7 µM; in assay [14] it was 32.8 µM; in assay [18], 34.4 µM; in [16] it was 46.7 µM; in assay [17], 37 µM.

Consider `CC(C)Nc1n[nH]c(=O)n1C(C)C`, for which the TGI in assay [1], in assay [2], in [3], in assay [4], in assay [5] and in [6] was greater than 100 µM throughout. The TGI in assay [7], in [8], in [9], in assay [11], in [12] and in assay [13] was greater than 100 µM throughout. The TGI in assay [15], in [16] and in assay [17] was greater than 100 µM each time.

In the case of `Cc1ccc2c(c1)C(=O)C1(C2)Cc2ccc(C)cc2C1=O`, the TGI in [1], in [2], in assay [3], in [4], in assay [5] and in [6] was greater than 100 µM throughout. Further, the TGI in assay [7], in assay [9], in [10], in assay [11], in [12] and in assay [13] was greater than 100 µM each time. For the same molecule, the TGI in assay [14], in [15], in [18], in assay [16] and in assay [17] was greater than 100 µM throughout.

Consider `N[C@H]1CCc2c1nc1c(c2-c2ccccc2)CC[C@@H]1N`, for which the TGI in [1] is greater than 100 µM; in assay [2], greater than 100 µM; in assay [3] it was greater than 100 µM; in [4], 59.8 µM; in [5] it was 33.7 µM; in [6], greater than 100 µM. The TGI in assay [7] was 29.5 µM; in assay [9] it was 64.3 µM; in assay [11] it was greater than 100 µM; in assay [12], 66 µM; in assay [13], 40.1 µM; in assay [14], 49.2 µM. Further, the TGI in [15] was 40.7 µM; in assay [18], greater than 100 µM; in [17] it was 29.5 µM.
